Tested on: HPA-axis
Assay: HPA-axis suppression: serum cortisol before and 30 minutes after intravenous cosyntropin stimulation, pediatric atopic dermatitis patients
Type: in vivo, human (pediatric patients)
Conditions: for Not suppressed: percent in brackets
Experimental: At the baseline visit, physical examinations were performed, including measurements of height, weight, and vital signs, and female subjects of childbearing potential underwent a urine pregnancy test (UPT). Patients with any significant disease of the hepatic, renal, endocrine, musculoskeletal, or nervous system were excluded. At Screening/Baseline, each qualified patient was assessed for a normally functioning HPA axis. Male or female patients with clinically diagnosed atopic dermatitis, involving ≧20% of the total body surface area (BSA), were randomized to receive either qd (once a day) or bid (twice a day) treatment in 4 sequential cohorts. The “rule of nines” method was used in calculating affected BSA.
Enrollment in the 4 cohorts was as follows: Cohort 1-33 patients, 12 to <18 years of age; Cohort 2-32 patients, 6 to <12 years of age; Cohort 3-30 patients, 2 to […] Cohort 4-31 infants, 3 months to <2 years of age.
Enrollment into each cohort began only after evaluation of the preceding cohort in order to minimize the risk of systemic toxicity to the study subjects. Four observations of HPA-axis suppression in a single treatment group per cohort were considered as evidence of a clinically significant risk.
Patients who met the inclusion/exclusion criteria were randomized to receive topical fluocinonide either qd or bid. Patients/guardians were instructed to apply a thin layer of the study product to all treatable areas once or twice daily for 14 days. If the areas to be treated were hairy, patients/guardians were instructed to part the hair to allow direct contact between the study product and the lesion. Patients/guardians were also instructed not to apply study product to lesions of the face, groin, perianal area, and axillae. At the end of Weeks 1, 2, and 4, patients returned to the study site in order for the investigator to perform designated evaluations, review treatment compliance and concomitant therapy, and to collect information regarding adverse events.
The potential of fluocinonide to suppress the HPA-axis was assessed by determining the rate of incidence of suppression, when suppression was defined as a serum cortisol level ≦18 μg/dL, 30 minutes after intravenous cosyntropin stimulation. For a subject to be evaluable for HPA-axis suppression, the subject must have received at least 2 full weeks of fluocinonide treatment prior to the cosyntropin challenge. Pre-and post-cosyntropin-stimulation blood samples were obtained between 7:30 and 8:30 AM to account for diurnal variation in cortisol levels, at the Baseline and Week 2 visits, as directed in the Cortrosyn® package insert. Cortrosyn® is a drug that stimulates the adrenal gland. […] The dose and administration of cosyntropin followed the labeling of the product. Specifically, the dose for subjects 3 to 17 years of age was 0.25 mg, and the dose for subjects 3 months to 2 years old was 0.125 mg. At the end of the 14-day treatment period, any subject with a post-stimulation cortisol level ≦18 μg/dL was re-tested at Week 4 and once every 4 weeks thereafter until the post-stimulation levels were within normal limits.
Mean post-stimulation cortisol levels measured at Baseline and at Week 2 were compared using a paired t test.

[1] = End of Week 2, Cohort 1 (12-<18 years), bid
[2] = End of Week 2, Cohort 1 (12-<18 years), qd
[3] = End of Week 2, Cohort 2 (6-<12 years), bid
[4] = End of Week 2, Cohort 2 (6-<12 years), qd
[5] = End of Week 2, Cohort 3 (2-<6 years), bid
[6] = End of Week 2, Cohort 3 (2-<6 years), qd
[7] = End of Week 2, Cohort 4 (3 months to <2 year), bid
[8] = End of Week 2, Cohort 4 (3 months to <2 year), qd
[9] = Screening, Cohort 1 (12-<18 years), bid
[10] = Screening, Cohort 1 (12-<18 years), qd

Compound: CC(=O)OCC(=O)[C@@]12OC(C)(C)O[C@@H]1C[C@H]1[C@@H]3C[C@H](F)C4=CC(=O)C=C[C@]4(C)[C@@]3(F)[C@@H](O)C[C@@]12C [Fluocinonide, pregna-1,4-diene-3,20-dione,21-(acetyloxy)-6,9-difluoro-11-hydroxy-16, 17-[(1-methylethylidene)bis(oxy)]-,(6α., 11β,16α)-]
- Patients who met the criterion for HPA-axis suppression (Cohort 1, bid, 1 of 15): 6.7%
- Patients who met the criterion for HPA-axis suppression (Cohort 2, bid, 2 of 16): 12.5%
- Patients who met the criterion for HPA-axis suppression (Cohort 3, bid, Week 2, 1 of 15, samples suspected reversed, not counted as suppression): 6.7%
- Subjects who experienced HPA-axis suppression (Cohort 4): None
- Cortisol increase in levels, Mean ± SD [1]: 8.6 ± 4.7 µg/dL
- Cortisol increase in levels, Range [1]: 1.2 to 17.0 µg/dL
- Cortisol pre-stimulation level, Mean ± SD [1]: 17.2 ± 8.3 µg/dL
- Cortisol pre-stimulation level, Range [1]: 7.1 to 34.2 µg/dL
- Not suppressed [1]: 14 (93.3) N
- Cortisol increase in levels, Mean ± SD [2]: 9.3 ± 5.1 µg/dL
- Cortisol increase in levels, Range [2]: 3.5 to 22.2 µg/dL
- Cortisol pre-stimulation level, Mean ± SD [2]: 17.6 ± 7.6 µg/dL
- Cortisol pre-stimulation level, Range [2]: 1.2 to 32.9 µg/dL
- Not suppressed [2]: 15 (100) N
- Cortisol increase in levels, Mean ± SD [3]: 11.5 ± 5.2 µg/dL
- Cortisol increase in levels, Range [3]: -3.5 to 20.3 µg/dL
- Cortisol pre-stimulation level, Mean ± SD [3]: 12.3 ± 4.9 µg/dL
- Not suppressed [3]: 14 (87.5) N
- Cortisol increase in levels, Mean ± SD [4]: 11.0 ± 4.8 µg/dL
- Cortisol increase in levels, Range [4]: -2.3 to 17.8 µg/dL
- Cortisol pre-stimulation level, Mean ± SD [4]: 13.7 ± 5.6 µg/dL
- Cortisol pre-stimulation level, Range [4]: 6.9 to 29.3 µg/dL
- Cortisol post-stimulation level, Mean ± SD (End of Week 2, Cohort 2 (6-<12 years), qd, P = 0.015 vs screening): 24.7 ± 3.0 µg/dL
- Cortisol post-stimulation level, Mean ± SD (End of Week 2, Cohort 2 (6-<12 years), qd, P = 0.015 vs screening, listed as fluocinonide): 24.7 µg/dL
- Not suppressed [4]: 15 (100) N
- Cortisol increase in levels, Mean ± SD [5]: 11.0 ± 10.4 µg/dL
- Cortisol increase in levels, Range [5]: -19 to 29.1 µg/dL
- Cortisol pre-stimulation level, Mean ± SD [5]: 15.0 ± 5.9 µg/dL
- Not suppressed [5]: 15 (100) N
- Cortisol increase in levels, Mean ± SD [6]: 12.7 ± 4.9 µg/dL
- Cortisol increase in levels, Range [6]: 3.1 to 22.0 µg/dL
- Cortisol pre-stimulation level, Mean ± SD [6]: 15.4 ± 7.0 µg/dL
- Not suppressed [6]: 15 (100) N
- Cortisol increase in levels, Mean ± SD [7]: 16.5 ± 6.6 µg/dL
- Cortisol increase in levels, Range [7]: 7.0 to 29.7 µg/dL
- Cortisol pre-stimulation level, Mean ± SD [7]: 13.0 ± 4.6 µg/dL
- Not suppressed [7]: 15 (100) N
- Cortisol increase in levels, Mean ± SD [8]: 19.9 ± 7.1 µg/dL
- Cortisol increase in levels, Range [8]: 6.4 to 29.9 µg/dL
- Cortisol pre-stimulation level, Mean ± SD [8]: 10.4 ± 3.2 µg/dL
- Not suppressed [8]: 15 (100) N
- Cortisol increase in levels, Mean ± SD [9]: 11.1 ± 3.7 µg/dL
- Cortisol increase in levels, Range [9]: 4.3 to 17.4 µg/dL
- Cortisol post-stimulation level, Mean ± SD [9]: 26.8 ± 8.0 µg/dL
- Cortisol post-stimulation level, Range [9]: 18.3 to 50.4 µg/dL
- Cortisol pre-stimulation level, Mean ± SD [9]: 15.7 ± 10.3 µg/dL
- Cortisol pre-stimulation level, Range [9]: 0.9 to 42.7 µg/dL
- Cortisol increase in levels, Mean ± SD [10]: 9.3 ± 5.2 µg/dL
- Cortisol increase in levels, Range [10]: -1.2 to 22.1 µg/dL
- Cortisol post-stimulation level, Mean ± SD [10]: 26.4 ± 3.7 µg/dL
- Cortisol post-stimulation level, Range [10]: 18.2 to 31.3 µg/dL
- Cortisol pre-stimulation level, Mean ± SD [10]: 17.2 ± 6.6 µg/dL
